Measured values: the CheMixHub viscosity set
“And” between values parts separate entries of the source, which are not always exact repeats. Equal entries are not always repeated.

Experiment: xn = mol fraction of the nth substance listed

CC(=O)OC(C)=O + Oc1ccccc1
viscosity [mPa·s], 101.33 kPa
Settings | 298.15 K | 323.15 K
x2 = 0.0899 | 0.922 | 0.666
x2 = 0.1347 | 0.98 | 0.706
x2 = 0.1492 | 1.014 | 0.733
x2 = 0.2953 | 1.267 | 0.896
x2 = 0.3588 | 1.412 | 0.951
x2 = 0.4184 | 1.559 | 1.05
x2 = 0.4673 | 1.706 | 1.1
x2 = 0.4678 | 1.707 | 1.1
x2 = 0.5 | 1.839 | 1.164
x2 = 0.5169 | 1.89 | 1.191
x2 = 0.5846 | 2.069 | 1.275
x2 = 0.6414 | 2.668 | 1.513
x2 = 0.78 | 3.958 | 2.017
x2 = 0.8878 | 5.906 | 2.623

O=CNc1ccccc1 + c1ccncc1
298.15 K, 101 kPa
Settings | viscosity [mPa·s]
x1 = 0.06989 | 1.089
x1 = 0.1339 | 1.335

C1CCCC1 + CCC(C)(C)O
viscosity [mPa·s], 101 kPa
Settings | 298.15 K | 308.15 K
x1 = 0.0429 | 2.979 | 1.779
x1 = 0.067 | 2.668 | 1.62
x1 = 0.1245 | 2.256 | 1.413
x1 = 0.2079 | 1.793 | 1.151
x1 = 0.3116 | 1.297 | 0.9115
x1 = 0.3957 | 1.073 | 0.7831
x1 = 0.5173 | 0.8412 | 0.6798
x1 = 0.5982 | 0.7558 | 0.5719
x1 = 0.683 | 0.6454 | 0.5099
x1 = 0.8095 | 0.508 | 0.4267
x1 = 0.8844 | 0.4827 | 0.4072
x1 = 0.9127 | 0.4379 | 0.3726
x1 = 0.944 | 0.4169 | 0.3547

CCC(=O)CC + CC(=O)CC(C)C
298.15 K, 101 kPa
Settings | viscosity [mPa·s]
x2 = 0.0749 | 0.581
x2 = 0.1609 | 0.575
x2 = 0.3004 | 0.571
x2 = 0.4466 | 0.566
x2 = 0.5932 | 0.562
x2 = 0.7509 | 0.558
x2 = 0.8066 | 0.553
x2 = 0.8789 | 0.548

CC(C)(C)C1CCCCC1 + CCCCCCCCCCCC
viscosity [mPa·s], 102 kPa
Settings | x1 = 0.1003 | x1 = 0.2004 | x1 = 0.3011 | x1 = 0.4005 | x1 = 0.5001 | x1 = 0.601 | x1 = 0.7001 | x1 = 0.8003 | x1 = 0.8991
293.15 K | 1.5 | 1.5 | 1.5 | 1.51 | 1.53 | 1.54 | 1.57 | 1.6 | 1.64
303.15 K | 1.26 | 1.26 | 1.27 | 1.27 | 1.28 | 1.3 | 1.32 | 1.34 | 1.38
313.15 K | 1.07 | 1.07 | 1.08 | 1.09 | 1.09 | 1.11 | 1.13 | 1.15 | 1.17
323.15 K | 0.92 | 0.925 | 0.933 | 0.939 | 0.946 | 0.958 | 0.975 | 0.992 | 1.01

CCC(=O)CC + CCCCN(CCCC)CCCC
viscosity [mPa·s], 101 kPa
Settings | 298.15 K | 303.15 K | 308.15 K
x2 = 0.05 | 0.468 | 0.442 | 0.419
x2 = 0.1004 | 0.498 | 0.47 | 0.444
x2 = 0.1502 | 0.533 | 0.502 | 0.473
x2 = 0.2006 | 0.566 | 0.531 | 0.502
x2 = 0.25 | 0.6 | 0.563 | 0.529
x2 = 0.2996 | 0.636 | 0.595 | 0.559
x2 = 0.3995 | 0.71 | 0.662 | 0.621
x2 = 0.4998 | 0.79 | 0.734 | 0.684
x2 = 0.6004 | 0.874 | 0.809 | 0.752
x2 = 0.7005 | 0.965 | 0.889 | 0.824
x2 = 0.7998 | 1.065 | 0.978 | 0.901
x2 = 0.8462 | 1.109 | 1.016 | 0.934
x2 = 0.8953 | 1.16 | 1.06 | 0.976
x2 = 0.9489 | 1.212 | 1.106 | 1.017

CCN(CC)C(C)=O + O
298.16 K, 101 kPa
Settings | viscosity [mPa·s]
x2 = 0.065 | 1.32
x2 = 0.1626 | 1.56
x2 = 0.255 | 1.86
x2 = 0.3529 | 2.26
x2 = 0.4791 | 2.92
x2 = 0.6036 | 3.7
x2 = 0.6894 | 4.22
x2 = 0.7465 | 4.38
x2 = 0.7702 | 4.36
x2 = 0.8188 | 4.2
x2 = 0.9049 | 2.45

OCc1ccccc1 + CC(C)=O
viscosity [mPa·s], 101 kPa
Settings | x1 = 0.2007 | x1 = 0.2986 | x1 = 0.4007 | x1 = 0.5002 | x1 = 0.7013 | x1 = 0.9003
303.15 K | 0.506 | 0.651 | 0.894 | 1.204 | 2.122 | 3.544
308.15 K | 0.495 | 0.632 | 0.861 | 1.11 | 1.857 | 3.118
313.15 K | 0.479 | 0.603 | 0.807 | 1.054 | 1.74 | 2.826

CN1CCCC1=O + CN(C)C=O
viscosity [mPa·s], 101 kPa
Settings | x2 = 0.1003 | x2 = 0.2001 | x2 = 0.2997 | x2 = 0.4 | x2 = 0.5007 | x2 = 0.595 | x2 = 0.7 | x2 = 0.8 | x2 = 0.9003
303.15 K | 1.417 | 1.328 | 1.249 | 1.17 | 1.085 | 1.018 | 0.943 | 0.872 | 0.809
313.15 K | 1.231 | 1.152 | 1.085 | 1.02 | 0.948 | 0.891 | 0.832 | 0.775 | 0.721
323.15 K | 1.097 | 1.024 | 0.967 | 0.908 | 0.846 | 0.794 | 0.742 | 0.692 | 0.646

OCc1ccccc1 + c1ccccc1
Settings | viscosity
293.15 K, 101.32 kPa, x1 = 0.03068 | 0.6725 mPa·s
293.15 K, 101.32 kPa, x1 = 0.04509 | 0.6903 mPa·s
293.15 K, 101.32 kPa, x1 = 0.1059 | 0.7825 mPa·s
293.15 K, 101.32 kPa, x1 = 0.1545 | 0.8652 mPa·s
293.15 K, 101.32 kPa, x1 = 0.1997 | 0.9735 mPa·s
298.15 K, 101.33 kPa, x1 = 0.1 | 0.7 mPa·s
298.15 K, 101.33 kPa, x1 = 0.2 | 0.855 mPa·s and 0.855 mPa·s
298.15 K, 101.33 kPa, x1 = 0.5 | 1.712 mPa·s and 1.712 mPa·s
298.15 K, 101.33 kPa, x1 = 0.8 | 3.267 mPa·s
303.15 K, 101 kPa, x1 = 0.1079 | 0.8732 mPa·s
303.15 K, 101 kPa, x1 = 0.2167 | 1.03 mPa·s
303.15 K, 101 kPa, x1 = 0.3472 | 1.291 mPa·s
303.15 K, 101 kPa, x1 = 0.4657 | 1.601 mPa·s
303.15 K, 101 kPa, x1 = 0.5516 | 1.877 mPa·s
303.15 K, 101 kPa, x1 = 0.6577 | 2.306 mPa·s
303.15 K, 101 kPa, x1 = 0.7244 | 2.653 mPa·s
303.15 K, 101 kPa, x1 = 0.868 | 3.594 mPa·s
303.15 K, 101 kPa, x1 = 0.9178 | 3.983 mPa·s
308.15 K, 101.33 kPa, x1 = 0.1 | 0.597 mPa·s
308.15 K, 101.33 kPa, x1 = 0.2 | 0.714 mPa·s
308.15 K, 101.33 kPa, x1 = 0.5 | 1.379 mPa·s
308.15 K, 101.33 kPa, x1 = 0.8 | 2.433 mPa·s
318.15 K, 101.33 kPa, x1 = 0.1 | 0.526 mPa·s
318.15 K, 101.33 kPa, x1 = 0.2 | 0.617 mPa·s
318.15 K, 101.33 kPa, x1 = 0.5 | 1.139 mPa·s
318.15 K, 101.33 kPa, x1 = 0.8 | 1.904 mPa·s
323.15 K, 101.33 kPa, x1 = 0.1 | 0.493 mPa·s
323.15 K, 101.33 kPa, x1 = 0.2 | 0.578 mPa·s and 0.575 mPa·s
323.15 K, 101.33 kPa, x1 = 0.5 | 1.026 mPa·s and 1.026 mPa·s
323.15 K, 101.33 kPa, x1 = 0.8 | 1.695 mPa·s

C=CCc1ccc2c(c1)OCO2 + CCCCCOC(C)=O
298.15 K, 101 kPa
Settings | viscosity [mPa·s]
x1 = 0.053 | 0.833
x1 = 0.232 | 1.01
